Among the data in US6875760B2 (Novo Nordisk A/S, priority 1999, dated 2005) are IC50 values, retold here.

The target in this test is T1, human glucagon receptor (Homo sapiens, UniProt P47871).
T1 construct: expressed in transfected cells; host or cells: BHK (baby hamster kidney) cells
Put plainly: Glucagon Binding Assay (III). Conditions: BHK cell membranes, WGA SPA beads, 125I-glucagon; read-out: Glu Bd Assay (III) IC50. An outline of the steps: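 Non-specific binding was set with 500 nM glucagon in this SPA-type binding assay using WGA beads. The receptor source was a membrane preparation, kept on ice or at 4 °C, from BHK cells transfected with the human receptor. Scintillation counts were taken after 4 hours of shaking and 8–48 hours of settling.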

T1 sequence (P47871 26-477): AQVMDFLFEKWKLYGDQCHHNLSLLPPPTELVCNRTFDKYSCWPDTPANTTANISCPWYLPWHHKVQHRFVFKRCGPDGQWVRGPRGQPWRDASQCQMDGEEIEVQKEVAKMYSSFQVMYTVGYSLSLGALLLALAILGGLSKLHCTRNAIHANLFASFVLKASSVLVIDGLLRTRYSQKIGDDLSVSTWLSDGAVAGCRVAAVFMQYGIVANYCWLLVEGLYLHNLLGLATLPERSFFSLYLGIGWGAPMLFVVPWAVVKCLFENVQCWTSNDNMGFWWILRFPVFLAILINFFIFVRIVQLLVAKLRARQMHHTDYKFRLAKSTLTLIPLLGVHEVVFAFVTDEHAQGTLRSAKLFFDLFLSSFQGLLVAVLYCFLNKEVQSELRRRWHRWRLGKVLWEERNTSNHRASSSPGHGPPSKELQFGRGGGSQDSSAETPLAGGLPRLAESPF

A word on the IC50: it is the concentration needed to halve the response being measured. Consider `O=C(Nc1nn[nH]n1)c1ccc(CN(C(=O)c2cccc(Cl)c2)c2ccc(C3=CCCCC3)cc2)cc1` [Example 495, 4-({(4-Cyclohex-1-enylphenyl)-(3-chlorobenzoyl)amino}methyl)-N-(2H-tetrazol-5-yl)benzamide], for which the IC50 worked out at 306 nM. With `O=C(Nc1nn[nH]n1)c1ccc(CN(C(=O)Cc2ccc(F)cc2F)c2ccc(C3CCCCC3)cc2)cc1` [Example 496, 4-({(4-Cyclohexylphenyl)-[2-(2,4-difluorophenyl)acetyl]amino}methyl)-N-(2H-tetrazol-5-yl)benzamide] the figure was 566 nM; with `O=C(Nc1nn[nH]n1)c1ccc(CN(C(=O)Cc2ccc(-c3ccccc3)cc2)c2ccc(C3CCCCC3)cc2)cc1` [Example 497, 4-{[(2-Biphenyl-4-yl-acetyl)-(4-cyclohexylphenyl)amino]methyl}-N-(2H-tetrazol-5-yl)benzamide], 589 nM; with `CC(Oc1cccc(Cl)c1)C(=O)N(Cc1ccc(C(=O)Nc2nn[nH]n2)cc1)c1ccc(C2CCCCC2)cc1` (centres unmarked) [Example 498, 4-{[[2-(3-Chlorophenoxy)propionyl]-(4-cyclohexylphenyl)amino]methyl}-N-(2H-tetrazol-5-yl)benzamide], 621 nM. `O=C(Nc1nn[nH]n1)c1ccc(CN(C(=O)Cc2ccc3ccccc3c2)c2ccc(C3CCCCC3)cc2)cc1` [Example 499, 4-{[(4-Cyclohexylphenyl)-(2-naphth-2-ylacetyl)amino]methyl}-N-(2H-tetrazol-5-yl)benzamide]: the concentration for half-maximal inhibition (IC50) came out at 136 nM. With `O=C(Nc1nn[nH]n1)c1ccc(CN(C(=O)/C=C/c2ccccc2Cl)c2ccc(C3CCCCC3)cc2)cc1` [Example 500, 4-{[[3-(2-Chlorophenyl)acryloyl]-(4-cyclohexylphenyl)amino]methyl}-N-(2H-tetrazol-5-yl)benzamide] the figure was 140 nM.

Take `O=C(Nc1nn[nH]n1)c1ccc(CN(C(=O)/C=C/c2ccccc2Br)c2ccc(C3CCCCC3)cc2)cc1` [Example 501, 4-{[[3-(2-Bromophenyl)acryloyl]-(4-cyclohexylphenyl)amino]methyl}-N-(2H-tetrazol-5-yl)benzamide]: the IC50 was 217 nM.

In the case of `CC(C)(C)C1CCC(N(Cc2ccc(C(=O)Nc3nn[nH]n3)cc2)C(=O)Cc2ccc(OC(F)(F)F)cc2)CC1` (centres unmarked) [Example 502, 4-({(4-tert-Butylcyclohexyl)-[2-(4-trifluoromethoxyphenyl)acetyl]amino}methyl)-N-(2H-tetrazol-5-yl)benzamide], the IC50 worked out at 28 nM. Turning to `CC(C)(C)C1CCC(N(Cc2ccc(C(=O)Nc3nn[nH]n3)cc2)C(=O)/C=C/c2c(Cl)cccc2Cl)CC1` (centres unmarked) [Example 503, 4-({(4-tert-Butylcyclohexyl)-[3-(2,6-dichlorophenyl)acryloyl]amino}methyl)-N-(2H-tetrazol-5-yl)benzamide], the IC50 was found to be 94 nM. With `O=C(O)CCNC(=O)c1ccc(CN(CC(c2ccccc2)c2ccccc2)C(=O)Cc2ccc(OC(F)(F)F)cc2)cc1` [Example 504, 3-[4-({(2,2-Diphenylethyl)-[2-(4-trifluoromethoxyphenyl)acetyl]amino}methyl)benzoylamino]propionic acid] the figure was 235 nM; with `O=C(O)CCNC(=O)c1ccc(CN(CC(c2ccccc2)c2ccccc2)C(=O)/C=C/c2c(Cl)cccc2Cl)cc1` [Example 505, 3-(4-{[[3-(2,6-Dichlorophenyl)acryloyl]-(2,2-diphenylethyl)amino]methyl}benzoylamino)propionic acid], 449 nM. Consider `CC(C)(C)C1CCC(N(Cc2ccc(C(=O)NCCC(=O)O)cc2)C(=O)Cc2ccc(OC(F)(F)F)cc2)CC1` (centres unmarked) [Example 506, 3-[4-({(4-tert-Butylcyclohexyl)-[2-(4-trifluoromethoxyphenyl)acetyl]amino}methyl)benzoylamino]propionic acid], for which the IC50 amounted to 108 nM. With `CC(C)Cc1ccc(C(=O)N(Cc2ccc(C(=O)Nc3nn[nH]n3)cc2)c2ccc(C3CCCCC3)cc2)cc1` [Example 507, 4-{[(4-Cyclohexylphenyl)-(4-isobutylbenzoyl)amino]methyl}-N-(2H-tetrazol-5-yl)benzamide] the figure was 444 nM. With `O=C(Nc1nn[nH]n1)c1ccc(CN(C(=O)c2ccc(Cc3ccccc3)cc2)c2ccc(C3CCCCC3)cc2)cc1` [Example 508, 4-{[(4-Cyclohexylphenyl)-(4-benzylbenzoyl)amino]methyl}-N-(2H-tetrazol-5-yl)benzamide] the figure was 198 nM. For `O=C(Nc1nn[nH]n1)c1ccc(CN(C(=O)c2cccc(C(F)(F)F)c2)c2ccc(C3CCCCC3)cc2)cc1` [Example 510, 4-{[(4-Cyclohexylphenyl)-(3-trifluoromethylbenzoyl)amino]methyl}-N-(2H-tetrazol-5-yl)benzamide] the value was 1100 nM.

For `CC(C)Cc1ccc(C(=O)N(Cc2ccc(C(=O)Nc3nn[nH]n3)cc2)C2CCC(C(C)(C)C)CC2)cc1` (centres unmarked) [Example 511, 4-{[(4-tert-Butylcyclohexyl)-(4-isobutylbenzoyl)amino]methyl}-N-(2H-tetrazol-5-yl)benzamide], the half-maximal inhibitory concentration (IC50) was determined as 58 nM.

Take `CC(C)(C)C1CCC(N(Cc2ccc(C(=O)Nc3nn[nH]n3)cc2)C(=O)c2ccc(Cc3ccccc3)cc2)CC1` (centres unmarked) [Example 512, 4-{[(4-tert-Butylcyclohexyl)-(4-benzylbenzoyl)amino]methyl}-N-(2H-tetrazol-5-yl)benzamide]: the IC50 was determined as 111 nM. As for `CC(C)Oc1ccc(C(=O)N(Cc2ccc(C(=O)Nc3nn[nH]n3)cc2)C2CCC(C(C)(C)C)CC2)cc1` (centres unmarked) [Example 513, 4-{[(4-tert-Butylcyclohexyl)-(4-isopropoxybenzoyl)amino]methyl}-N-(2H-tetrazol-5-yl)benzamide], the IC50 came out at 144 nM. `CC(C)(C)C1CCC(N(Cc2ccc(C(=O)Nc3nn[nH]n3)cc2)C(=O)c2cccc(C(F)(F)F)c2)CC1` (centres unmarked) [Example 514, 4-{[(4-tert-Butylcyclohexyl)-(3-trifluoromethylbenzoyl)amino]methyl}-N-(2H-tetrazol-5-yl)benzamide]: the IC50 stood at 667 nM.

For the molecule `CC(C)(C)C1CCC(N(Cc2ccc(C(=O)Nc3nn[nH]n3)cc2)C(=O)c2cccc3ccccc23)CC1` (centres unmarked) [Example 515, 4-{[(4-tert-Butylcyclohexyl)-(naphth-1-ylcarbonyl)amino]methyl}-N-(2H-tetrazol-5-yl)benzamide], the half-maximal inhibitory concentration (IC50) is 450 nM. For `CC(C)(C)C1CCC(N(Cc2ccc(C(=O)Nc3nn[nH]n3)cc2)C(=O)c2cccc3[nH]ccc23)CC1` (centres unmarked) [Example 516, 4-{[(4-tert-Butylcyclohexyl)-(1H-indol-4-ylcarbonyl)amino]methyl}-N-(2H-tetrazol-5-yl)benzamide] the value was 2490 nM; for `CC(C)(C)C1CCC(N(Cc2ccc(C(=O)Nc3nn[nH]n3)cc2)C(=O)Cc2ccc(S(C)(=O)=O)cc2)CC1` (centres unmarked) [Example 517, 4-({(4-tert-Butylcyclohexyl)-[2-(4-methylsulfonylphenyl)acetyl]amino}methyl)-N-(2H-tetrazol-5-yl)benzamide], 620 nM; for `CC(C)Cc1ccc(C(=O)N(Cc2ccc(C(=O)Nc3nn[nH]n3)cc2)c2ccc(N3CCCCC3)cc2)cc1` [Example 518, 4-{[(4-Isobutylbenzoyl)-(4-piperidin-1-ylphenyl)amino]methyl}-N-(2H-tetrazol-5-yl)benzamide], 1470 nM.

As to `O=C(Nc1nn[nH]n1)c1ccc(CN(C(=O)c2ccc(Cc3ccccc3)cc2)c2ccc(N3CCCCC3)cc2)cc1` [Example 519, 4-{[(4-Benzylbenzoyl)-(4-piperidin-1-ylphenyl)amino]methyl}-N-(2H-tetrazol-5-yl)benzamide], the IC50 came to 908 nM. Regarding `CC(C)Cc1ccc(C(=O)N(Cc2ccc(C(=O)NCCC(=O)O)cc2)c2ccc(C3CCCCC3)cc2)cc1` [Example 520, 3-(4-{[(4-Cyclohexylphenyl)-(4-isobutylbenzoyl)amino]methyl}benzoylamino)propionic acid], the 50% inhibitory concentration (IC50) turned out to be 1980 nM. For `O=C(O)CCNC(=O)c1ccc(CN(C(=O)c2ccc(Cc3ccccc3)cc2)c2ccc(C3CCCCC3)cc2)cc1` [Example 521, 3-(4-{[(4-Benzylbenzoyl)-(4-cyclohexylphenyl)amino]methyl}benzoylamino)propionic acid] the value was 3420 nM; for `O=C(O)CCNC(=O)c1ccc(CN(C(=O)c2ccc3c(c2)-c2ccccc2C3=O)c2ccc(C3CCCCC3)cc2)cc1` [Example 522, 3-(4-{[(4-Cyclohexylphenyl)-(9-oxo-9H-fluorene-3-carbonyl)amino]methyl}benzoylamino)propionic acid], 896 nM; for `CC(C)Oc1ccc(C(=O)N(Cc2ccc(C(=O)NCCC(=O)O)cc2)c2ccc(C3CCCCC3)cc2)cc1` [Example 523, 3-(4-{[(4-Cyclohexylphenyl)-(4-isopropoxybenzoyl)amino]methyl}benzoylamino)propionic acid], 2110 nM. On to `O=C(O)CCNC(=O)c1ccc(CN(C(=O)c2cccc(C(F)(F)F)c2)c2ccc(C3CCCCC3)cc2)cc1` [Example 524, 3-(4-{[(4-Cyclohexylphenyl)-(3-trifluoromethylbenzoyl)amino]methyl}benzoylamino)propionic acid], for which the IC50 is 293 nM.

For the molecule `CC(C)(C)C1CCC(N(Cc2ccc(C(=O)NCCC(=O)O)cc2)C(=O)c2ccc(Cc3ccccc3)cc2)CC1` (centres unmarked) [Example 525, 3-(4-{[(4-Benzylbenzoyl)-(4-tert-butylcyclohexyl)amino]methyl}benzoylamino)propionic acid], the IC50 was 669 nM. For `CC(C)Oc1ccc(C(=O)N(Cc2ccc(C(=O)NCCC(=O)O)cc2)C2CCC(C(C)(C)C)CC2)cc1` (centres unmarked) [Example 526, 3-(4-{[(4-tert-Butylcyclohexyl)-(4-isopropoxybenzoyl)amino]methyl}benzoylamino)propionic acid] the value was 1700 nM; for `CC(C)(C)C1CCC(N(Cc2ccc(C(=O)NCCC(=O)O)cc2)C(=O)c2cccc(C(F)(F)F)c2)CC1` (centres unmarked) [Example 527, 3-(4-{[(4-tert-Butylcyclohexyl)-(3-trifluormethylbenzoyl)amino]methyl}benzoylamino)propionic acid], 660 nM.
